The subject of experiment [1] is Trichophyton mentagrophytes SM-110. The experiment in a line: Antifungal activity evaluation test: minimum inhibitory concentration (MIC), broth dilution by reference to CLSI M38-A2. It counts as cell-based. As to conditions: SM110, read-out: MIC (T. menta.). In a few lines:
(§1)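 Broth microdilution after CLSI M38-A2: 2-fold DMSO dilution series in MOPS-buffered RPMI 1640 pH 7.0, inoculum 2×10^3 cells/mL final. Incubated 35° C for 4 days; MIC (μg/mL) is lowest concentration giving visually ≥80% growth inhibition versus growth control.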
(Broth dilution looks for growth in wells or tubes with falling amounts of substance.)

Experiment [2] deals with Trichophyton rubrum KD-1130. Described as above. It counts as cell-based. As to conditions: KD1130, read-out: MIC (T. rubrum). In a few lines:
as §1

The structures appear in SMILES notation. Values after ≈ are worked out from the molar mass of the structure shown. Some results are limits rather than exact numbers.

Broadly, the MIC is the least concentration at which growth counts as inhibited. Consider `COc1ccccc1-c1cccnc1Oc1ccc(C=O)nc1` [I-71, 5-{[3-(2-methoxyphenyl)pyridin-2-yl]oxy}picolinaldehyde], for which the minimum inhibitory concentration (MIC) in experiment [1] and in experiment [2] was 1.56 to 6.25 µg/mL (≈ 5.09 to 20.4 µM) in each case.
Consider `N#Cc1cnn2c(-c3cccnc3Oc3ccc(C(F)(F)F)nc3)cccc12` [I-54, 7-(2-{[6-(trifluoromethyl)pyridin-3-yl]oxy}pyridin-3-yl)-pyrazolo[1,5-a]pyridine-3-carbonitrile], for which the MIC in experiment [1] and in experiment [2] was 0.2 to 0.78 µg/mL (≈ 0.524 to 2.05 µM) throughout.
Regarding `COc1ccccc1-c1cccnc1Oc1ccc2c(c1)C(=O)CCC2` [I-273, 7-{[3-(2-methoxyphenyl)pyridin-2-yl]oxy}-3,4-dihydronaphthalen-1(2H)-one], the MIC in experiment [1] and in experiment [2] was at most 0.1 µg/mL throughout.
As for `COc1ncccc1-c1cccnc1Oc1ccc(C(F)F)cc1` [I-443], the MIC in experiment [1] and in experiment [2] was at most 0.1 µg/mL throughout.
Turning to `COc1cc(F)ccc1-c1cccnc1Oc1cnc(C(F)(F)F)nc1` [I-179, 5-{[3-(4-fluoro-2-methoxyphenyl)pyridin-2-yl]oxy}-2-(trifluoromethyl)pyrimidine], the MIC in experiment [1] and in experiment [2] was at most 0.1 µg/mL in each case.
Consider `CCc1ccc(Oc2ncccc2-c2cnccc2OC)cn1` [I-127, 2-[(6-ethylpyridin-3-yl)oxy]-4′-methoxy-3,3′-bipyridine], for which the MIC in experiment [1] and in experiment [2] was 1.56 to 6.25 µg/mL (≈ 5.08 to 20.3 µM) in each case.
Regarding `COc1ncccc1-c1cccnc1Oc1ccc2c(c1)CCCC2` [I-269, 2-methoxy-2′-[(5,6,7,8-tetrahydronaphthalen-2-yl)oxy]-3,3′-bipyridine], the MIC in experiment [1] and in experiment [2] was at most 0.1 µg/mL in each case.
Regarding `CC(F)(F)c1ccc(Oc2ncccc2-c2ccncc2F)cn1` [I-92, 2-{[6-(1,1-difluoroethyl)pyridin-3-yl]oxy}-3′-fluoro-3,4′-bipyridine], the MIC in experiment [1] and in experiment [2] was 0.2 to 0.78 µg/mL (≈ 0.604 to 2.35 µM) throughout.
Turning to `CCOC(=O)COc1ncc(Oc2ncccc2-c2ccc(F)cc2OC)cn1` [I-196, ethyl 2-[(5-{[3-(4-fluoro-2-methoxyphenyl)pyridin-2-yl]oxy}-pyrimidin-2-yl)oxy]acetate], the minimum inhibitory concentration (MIC) in experiment [1] and in experiment [2] was 0.2 to 0.78 µg/mL (≈ 0.501 to 1.95 µM) each time.
In the case of `Cn1nc(-c2cccnc2Oc2ccc(C(F)(F)F)nc2)c2cccnc21` [I-47, 1-methyl-3-(2-{[6-(trifluoromethyl)pyridin-3-yl]oxy}pyridin-3-yl)-1H-pyrazolo[3,4-b]pryidine], the minimal inhibitory concentration (MIC) in experiment [1] and in experiment [2] was 1.56 to 6.25 µg/mL (≈ 4.2 to 16.8 µM) in each case.
On to `COc1cc(F)ccc1-c1cccnc1Oc1cnc(Br)c(C)c1` [I-454], for which the minimal inhibitory concentration (MIC) in experiment [1] and in experiment [2] was at most 0.1 µg/mL in each case.
As for `COc1ccncc1-c1cccnc1Oc1ccc(C(C)(F)F)cc1F` [I-302], the MIC in experiment [1] and in experiment [2] was at most 0.1 µg/mL each time.
As to `COc1cccc(-c2cccnc2Oc2ccc(C(F)(F)F)nc2)n1` [I-374, 6-methoxy-2′-{[6-(trifluoromethyl)pyridin-3-yl]oxy}-2,3′-bipyridine], the MIC in experiment [1] and in experiment [2] was at most 0.1 µg/mL throughout.
In the case of `COc1ccncc1-c1cccnc1Oc1cnc(C2CC2)c(Cl)c1` [I-132, 2-[(5-chloro-6-cyclopropylpyridin-3-yl)oxy]-4′-methoxy-3,3′-bipyridine], the MIC is 0.2 to 0.78 µg/mL (≈ 0.565 to 2.2 µM) in experiment [1] and 1.56 to 6.25 µg/mL (≈ 4.41 to 17.7 µM) in experiment [2].
For `CC(F)(F)c1ccc(Oc2ncccc2-c2cccc3ocnc23)cn1` [I-113, 4-(2-{[6-(1,1-difluoroethyl)pyridin-3-yl]oxy}-3-yl)benzo[d]oxazole], in that order: at most 0.1 µg/mL and 0.2 to 0.78 µg/mL (≈ 0.566 to 2.21 µM).
Take `FC(F)(F)c1ccc(Oc2ncccc2-c2cccc3ccnn23)cn1` [I-44, 7-(2-{[6-(trifluoromethyl)pyridin-3-yl]oxy}pyridin-3-yl)-pyrazolo[1,5-a]pryidine]: the minimal inhibitory concentration (MIC) in experiment [1] and in experiment [2] was at most 0.1 µg/mL each time.
In the case of `FC(F)(F)c1ccc(Oc2ncccc2-c2cccc3c(Br)cnn23)cn1` [I-52, 3-bromo-7-(2-{[6-(trifluoromethyl)pyridin-3-yl]oxy}pyridin-3-yl)-pyrazolo[1,5-a]pyridine], the MIC in experiment [1] is 0.2 to 0.78 µg/mL (≈ 0.46 to 1.79 µM); in experiment [2], at most 0.1 µg/mL.
For `COc1ncc(Cl)cc1-c1cccnc1Oc1cnc(C(F)(F)F)nc1` [I-180, 5-chloro-2-methoxy-2′-{[2-(trifluoromethyl)pyrimidin-5-yl]oxy}-3,3′-bipyridine], in that order: at most 0.1 µg/mL and at most 0.1 µg/mL.
On the same counts, the results for `COc1ccc(F)c(-c2cccnc2Oc2ccc(C(F)F)nc2)c1` [I-74, 2-{[6-(difluoromethyl)pyridin-3-yl]oxy}-3-(2-fluoro-5-methoxyphenyl)pyridine] are at most 0.1 µg/mL and at most 0.1 µg/mL.
For `COc1ccccc1-c1cccnc1Oc1ccc(C(C)(F)F)nc1` [I-81, 2-{[6-(1,1-difluoroethyl)pyridin-3-yl]oxy}-3-(2-methoxyphenyl)pyridine], in that order: at most 0.1 µg/mL and at most 0.1 µg/mL.
As to `Cc1ccncc1-c1cccnc1Oc1ccc(I)cc1` [I-426], the MIC in experiment [1] and in experiment [2] was at most 0.1 µg/mL throughout.
Consider `COc1ccncc1-c1cccnc1Oc1ccc(C(C)C)cc1` [I-255, 2-(4-isopropylphenoxy)-4′-methoxy-3,3′-bipyridine], for which the MIC in experiment [1] and in experiment [2] was at most 0.1 µg/mL throughout.
As for `FC(F)(F)c1ccc(Oc2ncccc2-c2cccc3ccnn23)cc1` [I-228, 7-{2-[4-(trifluoromethyl)phenoxy]pyridin-3-yl}pyrazolo[1,5-a]pyridine], the MIC in experiment [1] and in experiment [2] was at most 0.1 µg/mL throughout.
`COc1ncccc1-c1cccnc1Oc1cnc(N(C)Cc2ccccc2)nc1` [I-381, N-benzyl-5-{[2′-methoxy-(3,3′-bipyridin)-2-yl]oxy}-N-methylpyrimidin-2-amine]: the minimum inhibitory concentration (MIC) in experiment [1] and in experiment [2] was at most 0.1 µg/mL throughout.
On to `FC(F)(F)c1ccc(Oc2ncccc2-c2cccc3ncnn23)cn1` [I-45, 5-(2-{[6-(trifluoromethyl)pyridin-3-yl]oxy}pyridin-3-yl)-[1,2,4]triazolo[1,5-a]pryidine], for which the MIC in experiment [1] was in the range of 1.56 to 6.25 µg/mL (≈ 4.37 to 17.5 µM); in experiment [2], 0.2 to 0.78 µg/mL (≈ 0.56 to 2.18 µM).
As to `COc1ccccc1-c1cccnc1Oc1cnc(Cl)nc1` [I-338, 2-chloro-5-{[3-(2-methoxyphenyl)pyridin-2-yl]oxy}pyrimidine], the MIC in experiment [1] and in experiment [2] was 0.2 to 0.78 µg/mL (≈ 0.637 to 2.49 µM) each time.
On to `COc1c(Cl)cncc1-c1cccnc1Oc1ccc(C(F)(F)F)cc1` [I-211, 5′-chloro-4′-methoxy-2-[4-(trifluoromethyl)phenoxy]-3,3′-bipyridine], for which the MIC in experiment [1] and in experiment [2] was at most 0.1 µg/mL each time.
As to `CCOC(=O)CN(C)c1ncc(Oc2ncccc2-c2ccc(F)cc2OC)cn1` [I-386, ethyl 2-[(5-{[3-(4-fluoro-2-methoxyphenyl)pyridin-2-yl]oxy}-pyrimidin-2-yl)(methyl)amino]acetate], the MIC in experiment [1] and in experiment [2] was at most 0.1 µg/mL throughout.
Regarding `COc1ncccc1-c1cccnc1Oc1cnc(C2CC2)c(Cl)c1` [I-131, 2-[(5-chloro-6-cyclopropylpyridin-3-yl)oxy]-2′-methoxy-3,3′-bipyridine], the MIC in experiment [1] and in experiment [2] was 0.2 to 0.78 µg/mL (≈ 0.565 to 2.2 µM) throughout.
As for `COc1ccccc1-c1c(C)ccnc1Oc1ccc(C(F)(F)F)nc1` [I-65, 3-(2-methoxyphenyl)-4-methyl-2-{[6-(trifluoromethyl)pyridin-3-yl]oxy}pyridine], the figures for the MIC in experiment [1] and in experiment [2] were 0.2 to 0.78 µg/mL (≈ 0.555 to 2.16 µM) and at most 0.1 µg/mL, respectively.
For `COc1ccncc1-c1cccnc1Oc1ccc(C#C[Si](C)(C)C)cc1` [I-259, 4′-methoxy-2-{4-[(trimethylsilyl)ethynyl]phenoxy}-3,3′-bipyridine], in that order: 0.2 to 0.78 µg/mL (≈ 0.534 to 2.08 µM) and 0.2 to 0.78 µg/mL (≈ 0.534 to 2.08 µM).
For `Fc1ccccc1-c1cccnc1Oc1ccc(C(F)(F)F)nc1` [I-3, 3-(2-fluorophenyl)-2-{[6-(trifluoromethyl)pyridin-3-yl]oxy}pyridine], the minimum inhibitory concentration (MIC) in experiment [1] and in experiment [2] was at most 0.1 µg/mL each time.
For the molecule `CCCN(C)c1ncc(Oc2ncccc2-c2cccc3c2OCC3)cn1` [I-449], the minimal inhibitory concentration (MIC) in experiment [1] and in experiment [2] was at most 0.1 µg/mL each time.
With `COc1ccccc1-c1cncnc1Oc1ccc(C(C)(F)F)nc1` [I-312, 4-{[6-(1,1-difluoroethyl)-pyridin-3-yl]oxy}-5-(2-methoxyphenyl)pyrimidine], the MIC in experiment [1] and in experiment [2] was at most 0.1 µg/mL each time.
Consider `COc1c(F)cncc1-c1cccnc1Oc1ccc(C(C)(F)F)cc1` [I-301, 2-[4-(1,1-difluoroethyl)-phenoxy]-5′-fluoro-4′-methoxy-3,3′-bipyridine], for which the minimum inhibitory concentration (MIC) in experiment [1] and in experiment [2] was at most 0.1 µg/mL throughout.
Turning to `COc1ccccc1-c1cccnc1Sc1ccc(C(F)(F)F)cc1` [I-436, 3-(2-methoxyphenyl)-2-{[4-(trifluoromethyl)phenyl]thio}pyridine], the MIC in experiment [1] and in experiment [2] was at most 0.1 µg/mL each time.
Turning to `COc1cc(F)ccc1-c1cccnc1Oc1cnc(N(C)C)nc1` [I-185, 5-{[3-(4-fluoro-2-methoxyphenyl)pyridin-2-yl]oxy}-N,N-dimethylpyrimidin-2-amine], the MIC in experiment [1] and in experiment [2] was at most 0.1 µg/mL each time.
As to `CCOC(=O)c1ccc(Oc2ncccc2-c2cnccc2C)cc1` [I-419], the minimum inhibitory concentration (MIC) in experiment [1] and in experiment [2] was at most 0.1 µg/mL in each case.
Regarding `COc1ncccc1-c1cccnc1Oc1ccc(C(F)F)c(C)c1` [I-456], the minimal inhibitory concentration (MIC) in experiment [1] and in experiment [2] was at most 0.1 µg/mL throughout.
With `COc1cc(F)c(F)cc1-c1cncnc1Oc1ccc(C(C)(F)F)nc1` [I-336, 4-{[6-(1,1-difluoroethyl)pyridin-3-yl]oxy}-5-(4,5-difluoro-2-methoxyphenyl)pyrimidine], the minimum inhibitory concentration (MIC) in experiment [1] and in experiment [2] was at most 0.1 µg/mL each time.
Turning to `Cc1ccncc1-c1cccnc1Oc1ccc(C(F)(F)F)nc1` [I-25], the MIC in experiment [1] and in experiment [2] was 0.2 to 0.78 µg/mL (≈ 0.604 to 2.35 µM) throughout.
As to `COCC(F)(F)c1ccc(Oc2ncccc2-c2cccc3nccnc23)cn1` [I-168, 5-(2-{[6-(1,1-difluoro-2-methoxyethyl)pyridin-3-yl]oxy}pyridin-3-yl)quinoxaline], the minimum inhibitory concentration (MIC) in experiment [1] and in experiment [2] was 0.2 to 0.78 µg/mL (≈ 0.507 to 1.98 µM) throughout.

For the origin of these results see patent US10647675B2 (priority 2015, dated 2020).
